From patent US8017318B1, “Method for detecting and/or quantifying a known function from a nucleic acid sample” (priority 1998, dated 2011)

Biological target: T1, β-lactamase TEM-1 (Escherichia coli, UniProt P62593)
T1 construct: made in house; host or cells: cell-free in vitro translation as described by Zubay (microbial system)
Assay: "resistance to clavulanic acid" beta-lactamase activity test with nitrocephine on in vitro translated enzyme
Type: biochemical
Conditions: sample 1 (100% germs resistant to antibiotics only, 0% double resistance); 1 μl clavulanic acid, 3 minutes at 25° C., then nitrocephine; 486 nm
Method: 10 μl of culture at DO600.2.3 were centrifuged and each pellet was resuspended into 12 μl of cellular lysis buffer (10 mM Tris HCl pH 7.5, 1 mM EDTA, 50 μg/ml proteinase K) and incubated 15 minutes at 55° C. then 15 minutes at 80° C. 9 μl of each of these lysates was added to a PCR amplification mixture that permitted amplification of the gene conferring monoresistance and of the gene conferring polyresistance, as well as of the sequences permitting their in vitro expression. 5 μl of each PCR amplification were used to carry out an in vitro transcription as described by Gurevich et al. (Gurevich V. A., Pokrovskaya I. D., Obukhova T. A. and Zozulya S., 1991, Preparative in vitro mRNA synthesis using SP6 and T7 polymerases, Anal. Biochem., 195, 207-213) 10 μl of each transcription was used to translate in vitro the proteins as described by Zubay (Zubay G., 1973, In vitro synthesis of protein in microbial systems, Ann. Rev. Genet., 7, 267-287) to a final volume of 100 μl
Two types of activity tests were carried out: • A measurement of the “total” beta-lactamase activity by using as substrate a chromogenic antibiotic: nitrocephine. […] The reaction was followed by monitoring absorbance changes at 486 nm. • A measurement of the “resistance to clavulanic acid” activity by using as substrate a chromogenic antibiotic: nitrocephine and a given concentration of clavulanic acid. […]

T1 sequence (P62593 24-286 limits assumed): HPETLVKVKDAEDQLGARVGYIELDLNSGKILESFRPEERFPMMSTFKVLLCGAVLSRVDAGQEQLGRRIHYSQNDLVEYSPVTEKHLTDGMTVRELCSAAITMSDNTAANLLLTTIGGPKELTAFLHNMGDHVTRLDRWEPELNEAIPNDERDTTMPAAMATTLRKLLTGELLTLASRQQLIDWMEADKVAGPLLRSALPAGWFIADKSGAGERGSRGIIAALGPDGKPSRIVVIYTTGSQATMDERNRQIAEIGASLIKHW

O=C(O)[C@H]1/C(=C/CO)O[C@@H]2CC(=O)N21 [clavulanic acid]
beta-lactamase activity detected in the presence of clavulanic acid: no activity is detected
